# Test results published in BindingDB's records for doi:10.1021/jm050654o (University of Bari Aldo Moro, 2005).
# Experiment: Antiproliferative activity mediated by sigma 1 receptor in rat C6 glioma cells by MTT assay
row,EC50 [µM],Compound
1,25.5,COc1ccc2c(CCCCN3CCC(C)CC3)cccc2c1
2,19.4,COc1ccc2c(CCCCN3CCCCC3)cccc2c1
3,15,COc1ccc2c(CCCCN3CCCC(C)(C)C3)cccc2c1
4,40.2,COc1ccc2c(CCCN3CCCC(C)(C)C3)cccc2c1

row,Compound,EC50 [µM]
1,CCCN(CCC)CCc1ccc(OC)c(OCCc2ccccc2)c1,10.7
